Experimental data as given in US12440431B2, “Cosmetic comprising ultraviolet wavelength conversion substance” (Shiseido Company, Ltd., priority 2019, dated 2025).

Legend:
Human dermal fibroblasts [1] = assay: Restoration of cell activity decreased by prior UV irradiation (AlamarBlue); format: cell-based; settings: pre-irradiation 400 mJ/cm^2 without substance, then UV 0-200 mJ/cm^2 through 0.4% or 2% C-phycocyanin (equivalent effect), FIG. 5
Experimental: (§1) 1. Human dermal fibroblasts and human skin keratinocytes purchased from Kurabo Industries Ltd. were used. A cell suspension (1 mL) stored in liquid nitrogen was thawed in a water bath (37° C.) to an extent that small ice pellets remained, and then diluted with 9 mL of warm medium. 2. The diluted suspension was mixed gently and then transferred to a T75 flask and incubated overnight at 37° C. 3. The next day, the medium was replaced with 10 mL of fresh medium. 4. The medium was replaced periodically (once every 2 days for fibroblasts and once every 2 to 3 days for keratinocytes) and cell proliferation was continued. Meanwhile, the cells were observed using a microscope, and it was confirmed that the cells grew in the correct form. 5. After the cells reached about 80% confluence, the cells were passaged. The cells were passaged by washing the cells once with 10 mL of warm PBS, adding 5 mL of warm trypsin to a T75 flask, covering the bottom of the flask with a trypsin solution, followed by aspirating at room temperature for 1 minute. 6. The flask was allowed to stand in an oven at 37° C. for (maximum) 2 minutes for fibroblasts and (maximum) 7 minutes for keratinocytes. The cells were observed using a microscope and confirmed to be small and oval. 7. Thereafter, the side of the T75 flask was lightly tapped to release the cells. […]

Human dermal fibroblasts [2] = assay: Cell activity (AlamarBlue) of cells irradiated with UV through a UV wavelength conversion substance solution; format: cell-based; settings: UV dose 0-100 mJ/cm^2, FIG. 3
Experimental: The UV wavelength conversion substances (1) and (2) were dissolved in water to prepare solutions having a concentration of 1% or 5%.
The UV wavelength conversion substances (3) and (4) were dispersed in alcohol to prepare 5% and 10% dispersions.
as §1, with “6.” for “6. The flask was allowed to stand in an oven at 37° C. for (maximum) 2 minutes for fibroblasts and (maximum) 7 minutes for keratinocytes. The cells were observed using a microscope and confirmed to be small and oval. 7. Thereafter, the side of the T75 flask was lightly tapped to release the cells.”

C-phycocyanin
cell activity (relative fluorescence intensity) after prior decrease by UV (Human dermal fibroblasts [1]): cell activity was recovered | cell activity (relative fluorescence intensity) (Human dermal fibroblasts [2]; 0.4% C-phycocyanin solution): the decrease in cell activity was suppressed | cell activity (relative fluorescence intensity) (Human dermal fibroblasts [2]; 2% C-phycocyanin solution): the cell activity was even increased compared to the case where UV irradiation was not carried out
